The text below walks through data of paper PMC8214221, “Sequence determinants in the cathelicidin LL-37 that promote inflammation via presentation of RNA to scavenger receptors” (The Journal of Biological Chemistry, 2021).

The test system of series [1] is NHEKs, IL6, IFNB1, TSLP, CXCL10 mRNA. The series is described as follows: qRT-PCR gene expression in NHEKs. Type of series: cell-based, human. The conditions noted are these: 18 h / 8 h (Fig. 1 legend), n = 3. How it is done: (§1) Protein levels of human IL-6 were analyzed from cell supernatant with ELISA (n = 3). Corresponding MIC values of LL-34 peptides L1A–R34A against Staphylococcus aureus USA300 are shown in the heat map. B, human dermal endothelial cells (HDMECs) were treated with either U1 dsRNA (2.5 μg/ml) or a combination of U1 dsRNA (2.5 μg/ml) and LL-34 peptides (Pep 1–Pep 34 and Pep–parent LL-34) at 2 μM for 18 h. IL-6 ELISA results are shown (n = 3). Green bars denote loss of IL-6 protein secretion compared with parent control shown in red. C, helical wheel plot for LL-34. Amino acids with green circles denote specific residues where replacement with an alanine caused the loss of IL-6 secretion compared with parent LL-34 peptide in NHEKs cotreated with U1 dsRNA. D, in the helical wheel plot for LL-34, circled green amino acids indicate that a substitution caused a loss of vetting in HDMEC. E–H, NHEKs were treated with LL-34-parent peptide (LL-34-P), LL-34-F5A, LL-34-I24A, LL-34-F27A, and LL-34-L31A at 2 μM, either individually or in combination with U1 dsRNA (2.5 μg/ml) for 8 h. Gene expression of IL-6, IFNB1, TSLP, and CXCL10 was assessed with qRT-PCR. GAPDH was used as a reference gene (n = 3) (∗p < 0.05; ∗∗∗∗p < 0.0001). One way-ANOVA was used. IL-6, interleukin 6; LL-34, 34-amino acid peptide; MIC, minimum inhibitory concentration, ns, not significant.
(§2) We further looked at mRNA abundance by quantitative RT-PCR (qRT-PCR) to evaluate gene expression for type 1 interferon IFNB1, chemokine CXCL10, and cytokines TSLP and IL6 in NHEKs treated with selected LL-34 parent, LL-34—F5A, I24A, F27A, and L31A—peptides either alone or in combination with U1 dsRNA for 18 h (Fig. 1, E–H).
RNA extracted from cells (Pure Link RNA Isolation Kit; Life Technologies) was quantified on the Nanodrop 2000/200C Spectrophotometer (Thermo Fisher Scientific). About 500 ng of purified RNA was used to synthesize complementary DNA with iScript cDNA Synthesis Kit (Bio-Rad). Predeveloped Taqman (Thermo Fisher Scientific) gene expression assays were used to evaluate mRNA transcript levels. Taqman cycling conditions were used as previously described ([9], [45]). All experiments were performed on a CFX96 system (Bio-Rad). Fold change relative to GAPDH was calculated using the Livak ΔΔCt method ([46]).
(In general: Real-time PCR tracks product formation cycle by cycle.)

The test system of series [2] is S. aureus strain USA300 and SA112, GAS. The series can be described thus: Bacterial growth inhibition (OD600), Gram-positive strains. Type of series: cell-based, Staphylococcus aureus; group A Streptococcus. The conditions noted are these: 0-50 µM overnight, OD 600, n = 3, S. aureus USA300, SA113 (SA112 in text). How it is done: as §2
(§3) Methicillin-resistant S. aureus USA300 and methicillin-sensitive S. aureus SA113 (American Type Culture Collection 35556) were cultured in 3% tryptic soy broth overnight at 37 °C with shaking at 250 rpm. GAS M49 strain NZ131 was cultured in Todd Hewitt broth supplemented with 1% yeast extract overnight at 37 °C without shaking. E. coli R1 strain RS218 was cultured in LB broth overnight at 37 °C with shaking at 250 rpm. MIC values were determined using a round-bottom 96-well microdilution method with RPMI cell culture media (as a source of Ca^2+ and Mg^2+) supplemented with tryptic soy broth, Todd Hewitt broth/yeast extract, or LB to facilitate growth of the respective bacterial strains. Overnight bacterial cultures were subcultured into fresh broth and grown to midlate log phase indicated by an absorbance at 600 nm value between 0.8 and 1.0 for each bacterial strain. The absorbance was then normalized to provide a concentration of 1 × 10^7 colony-forming units/ml in RPMI medium. The LL-34 parent and alanine scan mutants were serially diluted into the 96-well microtiter plates containing prewarmed RPMI bacterial growth medium. A 10 μl aliquot of the midlate log phase bacteria was inoculated into the 96-well microtiter plates that contained 95 μl of RPMI medium with or without the LL-34 peptide dilutions and incubated for 16 to 18 h at […] with shaking at 200 rpm. Inhibition of growth was determined by measuring the absorbance at 600 nm readings of each well using a microplate reader (Infinite M200 Pro; Tecan). The MIC of each bacterial strain was determined by the lowest peptide concentration that inhibited more than 80% bacterial growth.
(§4) (A) NHEKs and HDMECs (B) were treated with LL34- parent peptide and all the 34 alanine substituted peptides (Pep L1A-Pep R34A) and LL37 at 2 µM for 16 h. IL-6 protein secretion was assessed with ELISA (n=3) (C-F) LL34-Parent, LL34 F5A, LL34 I24A, LL34 F27A, and LL34 L31A peptides were incubated with S. aureus USA 300, S. aureus SA113, Group A Streptococcus (GAS) and E. coli at increasing concentrations (0-50 µM) overnight, and bacterial culture growth was assayed as absorbance at OD 600 (n=3).

Series [3] has as its system normal human epidermal keratinocytes (NHEKs). The series can be described thus: LDH release cytotoxicity assay in keratinocytes. Type of series: cell-based. Particulars: minimal concentration giving 50% LDH release by NHEKs. The method, boiled down: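 Normal human epidermal keratinocytes were exposed to LL-34 parent and alanine-substituted peptides. Cytotoxicity was read as LDH release in fresh culture supernatants after treatment, using a commercial kit, and reported as the minimal concentration showing toxicity.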

Series [4] deals with NHEKs, IL-6 secretion in response to U1 dsRNA. The series can be described thus: IL-6 secretion ELISA in NHEKs. The conditions noted are these: U1 dsRNA 2.5 μg/ml + peptide 2 μM, 18 h, n = 3. Type of series: cell-based, human. How it is done:
as §1
We hypothesized that sequential replacement of each amino acid in LL-34 peptide with a neutral amino acid alanine might reveal the amino acid residues critical for its ability to induce inflammation in response to U1 dsRNA. First, we treated NHEKs and human dermal microvascular endothelial cells (HDMECs) with LL-34 parent peptide and each of the 34 mutants at 2 μM for 18 h and measured the secretion of interleukin 6 (IL-6) in the supernatant by ELISA (Fig. S1, A and B). […] We then treated both NHEKs and HDMECs with a combination of U1 dsRNA (2.5 μg/ml) and the LL-34 parent/mutant peptides at 2 μM for 18 h and measured IL-6 secretion (Fig. 1, A–C). […] A similar pattern of IL-6 release was observed when HDMECs were treated with the peptide library and U1 dsRNA (Fig. 1B).
Cell culture supernatant was frozen at −80 °C until use for analysis. ELISA was performed with sandwich ELISA kits (R&D Systems) and quantified on a Spectramax Absorbance reader (Molecular Biosystems). Data were analyzed with GraphPad.

The subject of series [5] is Escherichia coli. The series can be described thus: Bacterial growth inhibition (OD600), E. coli. Type of series: cell-based. Particulars: 0-50 µM overnight, OD 600, n = 3. Here is the method:
as §2, §3, §4

The subject of series [6] is methicillin-resistant Staphylococcus aureus strain USA300. Type of series: cell-based. The conditions noted are these: MIC comparison with parent (MIC 25 μM); 18 h.
Description: Since LL-34 was the minimal truncation mutant of LL-37 that retained both antimicrobial and immune modulatory activity, we prepared a series of synthetic peptides with sequential substitutions of alanine at each amino acid position of the LL-34 parent peptide (Table 1). We compared the minimum inhibitory concentration (MIC) for the LL-34 parent peptide and the alanine mutants (LL-34 peptides—L1A and R34A) against methicillin-resistant Staphylococcus aureus strain USA300 (Fig. 1A). LL-34 peptides were incubated at concentrations of 0 to 100 μM with bacteria. The minimal concentration at which no growth was observed was noted after 18 h of incubation. […] Because of these changes in the MIC against S. aureus between the mutants, we investigated the effective toxicity profile of the peptides in normal human epidermal keratinocytes (NHEKs) by lactate dehydrogenase (LDH) release assay (Table 1). […] Most other peptides were cytotoxic at a minimal concentration of 10 μM, whereas LL-34—K15A was toxic at a concentration of 2.5 μM.
as §3

Residues, ends and D or L forms follow the SMILES beside them.

For `CC[C@H](C)[C@H](NC(=O)[C@H](CCCCN)NC(=O)[C@H](CCC(=O)O)NC(=O)[C@H](CCCCN)NC(=O)[C@H](CO)NC(=O)[C@H](CCCCN)NC(=O)[C@H](CCCNC(=N)N)NC(=O)[C@H](Cc1ccccc1)NC(=O)[C@H](C)NC(=O)[C@H](CC(=O)O)NC(=O)CNC(=O)[C@H](CC(C)C)NC(=O)[C@@H](N)CC(C)C)C(=O)NCC(=O)N[C@@H](CCCCN)C(=O)N[C@@H](CCC(=O)O)C(=O)N[C@@H](Cc1ccccc1)C(=O)N[C@@H](CCCCN)C(=O)N[C@@H](CCCNC(=N)N)C(=O)N[C@H](C(=O)N[C@H](C(=O)N[C@@H](CCC(N)=O)C(=O)N[C@@H](CCCNC(=N)N)C(=O)N[C@H](C(=O)N[C@@H](CCCCN)C(=O)N[C@@H](CC(=O)O)C(=O)N[C@@H](Cc1ccccc1)C(=O)N[C@@H](CC(C)C)C(=O)N[C@@H](CCCNC(=N)N)C(=O)N[C@@H](CC(N)=O)C(=O)N[C@@H](CC(C)C)C(=O)N[C@H](C(=O)N1CCC[C@H]1C(=O)N[C@@H](CCCNC(=N)N)C(=O)O)C(C)C)[C@@H](C)CC)C(C)C)[C@@H](C)CC` [LL-34—F5A] (H-LLGDAFRKSKEKIGKEFKRIVQRIKDFLRNLVPR-OH), in series [1] (U1 dsRNA 2.5 μg/ml + peptide 2 μM), the “Gene expression of IL6, IFNB1, and CXCL10, cotreatment with U1 dsRNA” value is listed as “reduction in gene expression”. The “Gene expression of TSLP, peptide alone” value in series [1] (peptide 2 μM alone, GAPDH reference) is “increased gene expression of TSLP”. For the same compound, in series [1] (peptide 2 μM alone), the “Basal expression of IL6, IFNB1, and CXCL10, peptide alone” value is reported as “not affected”. For the same compound, in series [2], the “Capacity to inhibit growth of Gram-positive bacteria” value was “increased capacity to inhibit growth of most of the tested Gram-positive bacteria”. In addition, in series [3], the “Minimal cytotoxic concentration in NHEK (LD50)” value is 10 µM. Besides, the “IL-6 protein secretion, cotreatment with U1 dsRNA, vs U1 dsRNA + LL-34 parent” value in series [4] was “reduced secretion of IL-6 protein”. Moreover, the “Action against Gram-negative E. coli” value in series [5] is on record as “little action”.

On to `CC[C@H](C)[C@H](NC(=O)[C@H](CCCCN)NC(=O)[C@H](CCC(=O)O)NC(=O)[C@H](CCCCN)NC(=O)[C@H](CO)NC(=O)[C@H](CCCCN)NC(=O)[C@H](CCCNC(=N)N)NC(=O)[C@H](Cc1ccccc1)NC(=O)[C@H](Cc1ccccc1)NC(=O)[C@H](CC(=O)O)NC(=O)CNC(=O)[C@H](CC(C)C)NC(=O)[C@@H](N)CC(C)C)C(=O)NCC(=O)N[C@@H](CCCCN)C(=O)N[C@@H](CCC(=O)O)C(=O)N[C@@H](Cc1ccccc1)C(=O)N[C@@H](CCCCN)C(=O)N[C@@H](CCCNC(=N)N)C(=O)N[C@H](C(=O)N[C@H](C(=O)N[C@@H](CCC(N)=O)C(=O)N[C@@H](CCCNC(=N)N)C(=O)N[C@H](C(=O)N[C@@H](CCCCN)C(=O)N[C@@H](CC(=O)O)C(=O)N[C@@H](Cc1ccccc1)C(=O)N[C@@H](C)C(=O)N[C@@H](CCCNC(=N)N)C(=O)N[C@@H](CC(N)=O)C(=O)N[C@@H](CC(C)C)C(=O)N[C@H](C(=O)N1CCC[C@H]1C(=O)N[C@@H](CCCNC(=N)N)C(=O)O)C(C)C)[C@@H](C)CC)C(C)C)[C@@H](C)CC` [LL-34—L28A] (H-LLGDFFRKSKEKIGKEFKRIVQRIKDFARNLVPR-OH), for which the “Minimal cytotoxic concentration in NHEK (LD50)” value in series [3] is 5 µM. The “IL-6 protein secretion, cotreatment with U1 dsRNA, vs U1 dsRNA + LL-34 parent” value in series [4] is “reduced secretion of IL-6 protein”. In addition, in series [6], the “Antimicrobial potency against S. aureus USA300 compared with LL-34 parent peptide” value is on record as “killed S. aureus USA300 more potently”.
